Measured values from patent publication US12428406B2 (PMV Pharmaceuticals, Inc., priority 2019, dated 2025).

Target: T1, p53 Y220C (Homo sapiens, UniProt P04637, Y220C)
T1 construct: The recombinant protein was a truncation mutant containing only amino acids 94-312 of p53; made in house; host or cells: E. coli
Assay: In vitro DNA binding activity assay (HTRF / TR-FRET): stabilization of p53 Y220C and increase of its DNA binding activity
Assay type: biochemical
Conditions: recombinant His-tagged p53 Y220C DNA binding domain (aa 94-312), biotin-labeled consensus DNA, incubated at 27° C. or 29° C. for 60 min
Summary of the method: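 Test compounds, diluted 3-fold in DMSO from 4.5 mM stocks, were incubated with bacterially expressed His-tagged p53 Y220C at room temperature for 15 min, and after a further step for 20 min. DNA binding was detected by time-resolved FRET between APC and europium labels. SC150 marks the concentration increasing binding by 50%.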

T1 sequence (P04637 94-312, change not shown): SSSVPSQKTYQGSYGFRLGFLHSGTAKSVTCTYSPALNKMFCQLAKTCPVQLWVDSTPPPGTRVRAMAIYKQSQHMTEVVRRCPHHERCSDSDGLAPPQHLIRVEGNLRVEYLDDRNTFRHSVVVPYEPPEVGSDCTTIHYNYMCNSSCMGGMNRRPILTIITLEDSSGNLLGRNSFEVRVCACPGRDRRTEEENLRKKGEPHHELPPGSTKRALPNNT

SC150 (concentration of the compound required to increase the DNA binding activity by 50%)	Compound
+ (+ = 0 μM ≤ SC150 < 0.05 μM)	CCS(=O)(=O)c1ccc(NCC#Cc2cc3c(N[C@H]4CC[C@H](N5CC6(COC6)C5)CC4)cccc3n2CC(F)(F)F)c(OC)c1 [Compound 269A, N-((1R,4R)-4-(2-oxa-6-azaspiro[3.3]heptan-6-yl)cyclohexyl)-2-(3-((4-(ethylsulfonyl)-2-methoxyphenyl)amino)prop-1-yn-1-yl)-1-(2,2,2-trifluoroethyl)-1H-indol-4-amine]
+ (+ = 0 μM ≤ SC150 < 0.05 μM)	COc1cc(C(N)=O)c(F)cc1NCC#Cc1cc2c(N[C@H]3CC[C@H](N4CC5(COC5)C4)CC3)cccc2n1CC(F)(F)F [Compound 273A, 2-fluoro-5-methoxy-4-{[3-(4-{[(1R,4R)-4-{2-oxa-6-azaspiro[3.3]heptan-6-yl}cyclohexyl]amino}-1-(2,2,2-trifluoroethyl)-1H-indol-2-yl)prop-2-yn-1-yl]amino}benzamide]
+ (+ = 0 μM ≤ SC150 < 0.05 μM)	CNC(=O)c1cc(OC)c(NCC#Cc2cc3c(N[C@H]4CC[C@H](N5CC6(COC6)C5)CC4)cccc3n2CC(F)(F)F)cc1F [Compound 275A, 2-fluoro-5-methoxy-N-methyl-4-{[3-(4-{[(1R,4R)-4-{2-oxa-6-azaspiro[3.3]heptan-6-yl}cyclohexyl]amino}-1-(2,2,2-trifluoroethyl)-1H-indol-2-yl)prop-2-yn-1-yl]amino}benzamide]
++ (++ = 0.05 μM ≤ SC150 < 0.1 μM)	COc1cc(C(F)(F)F)ccc1NCC#Cc1cc2c(N[C@H]3CC[C@H](N4CC5(COC5)C4)CC3)cccc2n1CC(F)(F)F [Compound 277A, 2-(3-{[2-methoxy-4-(trifluoromethyl)phenyl]amino}prop-1-yn-1-yl)-N-[(1R,4R)-4-{2-oxa-6-azaspiro[3.3]heptan-6-yl}cyclohexyl]-1-(2,2,2-trifluoroethyl)-1H-indol-4-amine]
+ (+ = 0 μM ≤ SC150 < 0.05 μM)	COc1cc(C(=O)O)ccc1NCC#Cc1cc2c(N[C@H]3CC[C@H](N4CC5(COC5)C4)CC3)cccc2n1CC(F)(F)F [Compound 279A, 4-((3-(4-(((1R,4R)-4-(2-oxa-6-azaspiro[3.3]heptan-6-yl)cyclohexyl)amino)-1-(2,2,2-trifluoroethyl)-1H-indol-2-yl)prop-2-yn-1-yl)amino)-3-methoxybenzoic acid]
+ (+ = 0 μM ≤ SC150 < 0.05 μM)	COc1cc(C(=O)O)c(F)cc1NCC#Cc1cc2c(N[C@H]3CC[C@H](N4CC5(COC5)C4)CC3)cccc2n1CC(F)(F)F [Compound 281A, 2-fluoro-5-methoxy-4-{[3-(4-{[(1R,4R)-4-{2-oxa-6-azaspiro[3.3]heptan-6-yl}cyclohexyl]amino}-1-(2,2,2-trifluoroethyl)-1H-indol-2-yl)prop-2-yn-1-yl]amino}benzoic acid]
+ (+ = 0 μM ≤ SC150 < 0.05 μM)	Cc1cc(S(C)(=O)=O)ccc1NCC#Cc1cc2c(N[C@H]3CC[C@H](N4CC5(COC5)C4)CC3)cccc2n1CC(F)(F)F [Compound 283A, 2-{3-[(4-methanesulfonyl-2-methylphenyl)amino]prop-1-yn-1-yl}-N-[(1R,4R)-4-{2-oxa-6-azaspiro[3.3]heptan-6-yl}cyclohexyl]-1-(2,2,2-trifluoroethyl)-1H-indol-4-amine]
+ (+ = 0 μM ≤ SC150 < 0.05 μM)	CS(=O)(=O)c1ccc(NCC#Cc2cc3c(N[C@H]4CC[C@H](N5CC6(COC6)C5)CC4)cccc3n2CC(F)(F)F)c(OC(F)(F)F)c1 [Compound 285A, 2-(3-{[4-methanesulfonyl-2-(trifluoromethoxy)phenyl]amino}prop-1-yn-1-yl)-N-[(1R,4R)-4-{2-oxa-6-azaspiro[3.3]heptan-6-yl}cyclohexyl]-1-(2,2,2-trifluoroethyl)-1H-indol-4-amine]
+ (+ = 0 μM ≤ SC150 < 0.05 μM)	CS(=O)(=O)c1ccc(NCC#Cc2cc3c(N[C@H]4CC[C@H](N5CC6(COC6)C5)CC4)cccc3n2CC(F)(F)F)c(C(F)(F)F)c1 [Compound 287A, 2-(3-{[4-methane-sulfonyl-2-(trifluoro-methyl)phenyl]amino}prop-1-yn-1-yl)-N-[(1R,4R)-4-{2-oxa-6-azaspiro[3,3]heptan-6-yl}cyclohexyl]-1-(2,2,2-trifluoroethyl)-1H-indol-4-amine]
+ (+ = 0 μM ≤ SC150 < 0.05 μM)	CS(=O)(=O)c1ccc(NCC#Cc2cc3c(N[C@H]4CC[C@H](N5CC6(COC6)C5)CC4)cccc3n2CC(F)(F)F)c(Cl)c1 [Compound 289A, 2-{3-[(2-chloro-4-methanesulfonyl-phenyl)amino]prop-1-yn-1-yl}-N-[(1R,4R)-4-{2-oxa-6-azaspiro[3.3]heptan-6-yl}cyclo-hexyl]-1-(2,2,2-trifluo-roethyl)-1H-indol-4-amine]
+ (+ = 0 μM ≤ SC150 < 0.05 μM)	COc1cc(S(C)(=O)=O)ccc1NCC#Cc1cc2c(N[C@H]3CC[C@@H](N4CC5(CCOCC5)C4)CC3)cccc2n1CC(F)(F)F [Compound 293A, 2-{3-[(4-methane-sulfonyl-2-methoxy-phenyl)amino]prop-1-yn-1-yl}-N-[(1S,4S)-4-{7-oxa-2-azaspiro[3.5]nonan-2-yl}cyclo-hexyl]-1-(2,2,2-trifluoro-ethyl)-1H-indol-4-amine]
+ (+ = 0 μM ≤ SC150 < 0.05 μM)	COc1cc(S(C)(=O)=O)ccc1NCC#Cc1cc2c(N[C@H]3CC[C@H](N4CC5(CCOCC5)C4)CC3)cccc2n1CC(F)(F)F [Compound 294A, 2-{3-[(4-methane-sulfonyl-2-methoxy-phenyl)amino]prop-1-yn-1-yl}-N-[(1R,4R)-4-{7-oxa-2-azaspiro[3.5]nonan-2-yl}cyclo-hexyl]-1-(2,2,2-trifluoro-ethyl)-1H-indol-4-amine]
+ (+ = 0 μM ≤ SC150 < 0.05 μM)	CNC(=O)c1ccc(NCC#Cc2cc3c(N[C@H]4CC[C@H](N5CC6(CCOCC6)C5)CC4)cccc3n2CC(F)(F)F)c(OC)c1 [Compound 295A, 3-methoxy-N-methyl-4-{[3-(4-{[(1R,4R)-4-{7-oxa-2-azaspiro[3.5]nonan-2-yl}cyclo-hexyl]amino}-1-(2,2,2-trifluoroethyl)-1H-indol-2-yl)prop-2-yn-1-yl]amino}benzamide]
+ (+ = 0 μM ≤ SC150 < 0.05 μM)	CNC(=O)c1ccc(NCC#Cc2cc3c(N[C@H]4CC[C@@H](N5CC6(CCOCC6)C5)CC4)cccc3n2CC(F)(F)F)c(OC)c1 [Compound 296A, 3-methoxy-N-methyl-4-{[3-(4-{[(1S,4S)-4-{7-oxa-2-azaspiro[3.5]nonan-2-yl}cyclohexyl]amino}-1-(2,2,2-trifluoroethyl)-1H-indol-2-yl)prop-2-yn-1-yl]amino} benzamide]
+ (+ = 0 μM ≤ SC150 < 0.05 μM)	COc1cc(S(N)(=O)=O)ccc1NCC#Cc1cc2c(N[C@H]3CC[C@H](N4CC5(CCOCC5)C4)CC3)cccc2n1CC(F)(F)F [Compound 297A, 3-methoxy-4-{[3-(4-{[(1R,4R)-4-{7-oxa-2-azaspiro[3.5]nonan-2-yl}cyclohexyl]amino}-1-(2,2,2-trifluoroethyl)-1H-indol-2-yl)prop-2-yn-1-yl]amino}benzene-1-sulfonamide]
+ (+ = 0 μM ≤ SC150 < 0.05 μM)	COc1cc(S(N)(=O)=O)ccc1NCC#Cc1cc2c(N[C@H]3CC[C@@H](N4CC5(CCOCC5)C4)CC3)cccc2n1CC(F)(F)F [Compound 298A, 3-methoxy-4-{[3-(4-{[(1S,4S)-4-{7-oxa-2-azaspiro[3.5]nonan-2-yl}cyclohexyl]amino}-1-(2,2,2-trifluoroethyl)-1H-indol-2-yl)prop-2-yn-1-yl]amino}benzene-1-sulfonamide]
+ (+ = 0 μM ≤ SC150 < 0.05 μM)	N#CCOc1cc(S(N)(=O)=O)ccc1NCC#Cc1cc2c(N[C@H]3CC[C@H](N4CC5(CCOCC5)C4)CC3)cccc2n1CC(F)(F)F [Compound 299A, 3-(cyanomethoxy)-4-{[3-(4-{[(1R,4R)-4-{7-oxa-2-azaspiro[3.5]nonan-2-yl}cyclo-hexyl]amino}-1-(2,2,2-trifluoroethyl)-1H-indol-2-yl)prop-2-yn-1-yl]amino}benzene-1-sulfonamide]
+ (+ = 0 μM ≤ SC150 < 0.05 μM)	N#CCOc1cc(S(N)(=O)=O)ccc1NCC#Cc1cc2c(N[C@H]3CC[C@@H](N4CC5(CCOCC5)C4)CC3)cccc2n1CC(F)(F)F [Compound 300A, 3-(cyanomethoxy)-4-{[3-(4-{[(1S,4S)-4-{7-oxa-2-azaspiro[3.5]nonan-2-yl}cyclo-hexyl]amino}-1-(2,2,2-trifluoroethyl)-1H-indol-2-yl)prop-2-yn-1-yl]amino}benzene-1-sulfonamide]
+ (+ = 0 μM ≤ SC150 < 0.05 μM)	COc1cc(C(C)(C)C#N)ccc1NCC#Cc1cc2c(N[C@H]3CC[C@H](N4CC5(CCOCC5)C4)CC3)cccc2n1CC(F)(F)F [Compound 301A, 2-(3-methoxy-4-{[3-(4-{[(1R,4R)-4-{7-oxa-2-azaspiro[3.5]nonan-2-yl}cyclohexyl]amino}-1-(2,2,2-trifluoroethyl)-1H-indol-2-yl)prop-2-yn-1-yl]amino}phenyl)-2-methylpropanenitrile]
+ (+ = 0 μM ≤ SC150 < 0.05 μM)	CS(=O)(=O)c1ccc(NCC#Cc2cc3c(N[C@H]4CC[C@H](N5CC6(CCOCC6)C5)CC4)cccc3n2CC(F)(F)F)c(OCC#N)c1 [Compound 303A, 2-(5-methanesulfonyl-2-{[3-(4-{[(1R,4R)-4-{7-oxa-2-azaspiro[3.5]nonan-2-yl}cyclohexyl]amino}-1-(2,2,2-trifluoroethyl)-1H-indol-2-yl)prop-2-yn-1-yl]amino}phenoxy)acetonitrile]
